Laboratory results from patent US9605047B2, “Compositions and methods for treating hypertension” (The Brigham and Women's Hospital, Inc., priority 2012, dated 2017).
“Also recorded” adds a separate entry of the source.

Legend:
[1] = system: PGC-1α / steroidogenesis factor-1 (SF); assay: Co-immunoprecipitation of PGC-1α with SF in HPAECs; type: cell-based, human; details: ET-1 10 nM, 24 h, n=3
Description: Co-immunoprecipitation of proteins. Cell monolayers were washed twice with ice-cold PBS and incubated on ice with RIPA buffer supplemented with various protease inhibitors (Millpore). Cells were scraped with a rubber policeman and samples were rotated at 4° C. for 15 min. Lysates were centrifuged at 14,000×g at 4° C. for 15 min and the then pre-cleared with a 50% slurry of Protein G agarose beads (Santa Cruz Biotechnology) mixed with PBS. Following removal of the beads by centrifugation, cell lysates were incubated with an anti-ETB or anti-PGC-1α antibody (Santa Cruz Biotechnology) overnight at 4° C. The immunocomplex was captured by incubating lysates with 50% Protein G agarose bead slurry at 4° C. for 1 h. Beads were collected by pulse centrifugation, resuspended in non-reducing sample buffer, and then boiled for 10 min to dissociate the immunocomplex from the beads. Western analysis was performed with an anti-SF (Santa Cruz) or anti-sulfenic acid (R—SOH) antibody (Millpore) as described above.

[2] = system: CYP11B2 (aldosterone synthase); assay: CYP11B2 protein expression in HPAECs by Western analysis; type: cell-based, human; details: 24 h, n=3
Description: (§1) Cell culture and treatments. Human pulmonary artery endothelial cells (HPAECs) (Lonza) (male donors) were grown to confluence using phenol-free EGM-2 medium supplemented with 5% fetal bovine serum at 37° C., 5% CO2. Cells were passaged twice-weekly using 0.5% trypsin/EDTA, and experiments were performed on cells from passages 4-10. Aldosterone (Steraloids) and ET-1 (1-100 nM) (Sigma-Aldrich) were dissolved in dimethylsufloxide ([…]) and deoxygenated water, respectively, which served as vehicle controls. Cells were treated with aldosterone (10^−−10^−7 mol/L) for 24 h and in selected experiments co-incubated with the mineralocorticoid receptor inhibitor spironolactone (10 μM/l) (Sigma-Aldrich).
(§2) Immunoblotting. Proteins were size fractionated electrophoretically using SDS-PAGE and transferred to polyvinylidene fluoride membranes. The membranes were incubated with anti-ETA (Santa Cruz Biotechnology), anti-ETB (Santa Cruz Biotechnology), anti-NOX4 (Santa Cruz Biotechnology), anti-p22P^phox (Santa Cruz), anti-eNOS (Cell Signaling), anti-PGC-1α (Santa Cruz Biotechnology), and anti-SF (Santa Cruz Biotechnology) antibodies overnight at 4° C. and visualized using the ECL detection system (Amersham Biosciences). In experiments to assess ETA expression, purified ETA protein (Novus Biological) was loaded to serve as an internal control.

[3] = system: ETB-dependent NO. generation in HPAECs; assay: NO. metabolites (NO2−, NO3−) in ET-1-stimulated HPAECs; type: cell-based, human
Description: Cell culture and treatments. Human pulmonary artery endothelial cells (HPAECs) (Lonza) (male donors) were grown to confluence using phenol-free EGM-2 medium supplemented with 5% fetal bovine serum at 37° C., 5% CO2. Cells were passaged twice-weekly using 0.5% trypsin/EDTA, and experiments were performed on cells from passages 4-10. Aldosterone (Steraloids) and ET-1 (1-100 nM) (Sigma-Aldrich) were dissolved in dimethylsufloxide (10 nmol/L) and deoxygenated water, respectively, which served as vehicle controls. Cells were treated with aldosterone (10^−−10^−7 mol/L) for 24 h and in selected experiments co-incubated with the mineralocorticoid receptor inhibitor spironolactone (10 μM/l) (Sigma-Aldrich).

eNOS = eNOS activity ([14C] arginine, NOS activity kit) in HPAECs; type: cell-based, human; details: ET-1 (10 nM) stimulated HPAECs, without or with aldosterone; n=3
Description: eNOS activity. eNOS activity was measured using the NOS activity kit (Cayman) according to the manufacturer's instructions with some modifications. Cells were washed with PBS containing 1 mM EDTA, transferred to a microcentrifuge tube, and centrifuged at 14,000×g at 4° C. for 2 min. The supernatant was decanted and homogenization buffer (250 mM Tris-HCl, pH 7.4, 6 μM BH4, 2 μM flavin adenine dinucleotide, and 2 μM flavin adenine mononucleotide) was added to the cell pellets. […] The samples were then centrifuged at 14,000×g for 30 seconds and radioactivity of the eluant was quantified in a liquid scintillation counter (Beckman-Coulter).

HPAECs [4] = assay: Aldosterone levels in HPAEC culture medium by enzyme immunoassay; type: cell-based, human; details: 24 h, n=4
HPAECs [5] = assay: Amplex Red assay of hydrogen peroxide levels in HPAECs; type: cell-based, human; details: ET-1 10 nM, HPAECs; p=0.43, n=4
Description: Human pulmonary artery endothelial cells (HPAECs) (Lonza) (male donors) were grown to confluence using phenol-free EGM-2 medium supplemented with 5% fetal bovine serum at 37° C., 5% CO2. Cells were passaged twice-weekly using 0.5% trypsin/EDTA, and experiments were performed on cells from passages 4-10. Aldosterone (Steraloids) and ET-1 (1-100 nM) (Sigma-Aldrich) were dissolved in dimethylsufloxide (10 nmol/L) and deoxygenated water, respectively, which served as vehicle controls. Cells were treated with aldosterone (10^−−10^−7 mol/L) for 24 h and in selected experiments co-incubated with the mineralocorticoid receptor inhibitor spironolactone (10 μM/l) (Sigma-Aldrich).

HPAECs [6] = assay: 3-Nitrotyrosine immunohistochemistry in HPAECs; type: cell-based, human; details: V 24.1±3.3, n=5
Description: 3-Nitrotyrosine immunohistochemistry. Cells grown to confluence on glass chamber slides were fixed following treatments and anti-3-nitrotyrosine immunohistochemistry (Santa Cruz Biotechnology) was performed using the 3,3′-diaminobenzidine substrate method (Vector laboratories) as described previously.^1

CYP11B2 promoter = assay: Chromatin immunoprecipitation assay, CYP11B2 promoter; type: cell-based, human; details: ET-1 10 nM, 24 h; vs V 16.3±9.8; n=3
Description: Chromatin immunoprecipitation assay. Chromatin immunoprecipitation assays were performed using the QuikChIP assay (Imgenex) according to the manufacturer's instructions. PCR amplification was performed on the proximal region of the CYP11B2 promoter region containing the gonadotrope-specific element ^51. The primers used were: forward 5′-[…]-3′ (SEQ ID NO:2) and reverse 5′-[…]-3′ (SEQ ID NO: 3). CYP11B2 primers used for PCR were forward: 5′ […]-3′ (SEQ ID NO: 4) and reverse: 5′-[…]-3′ (SEQ ID NO:5).

[7] = system: PGC-1α and steroidogenesis factor-1 (SF); assay: PGC-1α and SF protein expression in HPAECs by Western analysis; type: cell-based, human; details: for PGC-1α protein expression levels: 24 h, n=3
Description: as §1, §2

[8] = biological target: T1, ETB cysteinyl thiols (region containing Cys405) (Homo sapiens, UniProt P24530); assay: Western analysis to detect ETB disulfide bond formation in HPAECs; type: cell-based; details: aldosterone 10^−7 mol/L 24 h or H2O2 200 μmol/L 20 min
T1 construct: endogenous in cells; host or cells: HPAECs (Lonza)
T1 sequence (P24530 27-442): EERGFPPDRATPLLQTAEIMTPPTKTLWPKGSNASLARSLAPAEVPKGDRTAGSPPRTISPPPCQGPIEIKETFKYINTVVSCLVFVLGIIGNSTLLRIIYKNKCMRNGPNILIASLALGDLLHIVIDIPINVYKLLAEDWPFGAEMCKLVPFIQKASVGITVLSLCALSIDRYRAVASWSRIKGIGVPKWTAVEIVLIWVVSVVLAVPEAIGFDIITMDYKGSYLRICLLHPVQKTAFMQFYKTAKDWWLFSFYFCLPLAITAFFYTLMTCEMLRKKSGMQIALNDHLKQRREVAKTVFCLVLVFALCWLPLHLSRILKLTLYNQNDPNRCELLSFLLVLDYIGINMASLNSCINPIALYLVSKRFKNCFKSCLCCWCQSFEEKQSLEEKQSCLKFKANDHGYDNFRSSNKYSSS
Description: (§3) Western analysis to detect ETB disfulfide bond formation. Western analysis to detect ETB disulfide bond formation was performed as described previously.^7 Briefly, protein extracts from cells were lysed in alkylating buffer containing 0.1 M Tris-HCL, pH 6.8, 1% SDS, 100 mM iodoacetamide, and 100 mM N-ethylmaleimide, and sonicated on ice for 5 min followed by a 30-min incubation at 25° C. Alkylated proteins were then precipitated with acetone. Proteins were resuspended in 50 μl of 0.1 M Tris-HCl, pH 7.4, 1% SDS; and disulfides were reduced with 5 mM tris(2-carboxyethyl)phosphine hydrochloride (TCEP). Following a 20-min incubation at 25° C., TCEP was removed with a Micro Bio-Spin™ column 6 (Bio-Rad), and 1% SDS was added to the eluant. The cysteines previously participating in a disulfide bond, now reduced, were labeled with 1 mM polyethylene glycol-conjugated maleimide (molecular mass 10 kDa) (Fluka). After a 1-h incubation at 25° C., proteins were precipitated with acetone, resuspended in 50 μl of non-reducing SDS electrophoresis buffer, and boiled for 10 min. Protein samples were then size-fractionated electrophoretically using SDS-PAGE, and transferred to a polyvinylidene fluoride membrane. […]

[9] = system: rats with SU-5416/hypoxia-induced PAH; assay: SU-5416/hypoxia-induced PAH, prevention study with eplerenone; type: in vivo, rat; details: SU-5416 (20 mg/kg s.c.) plus chronic hypoxia 21 days vs normal rats; n=5
ETB = biological target: T2, ETB (Homo sapiens, UniProt P24530); assay: Disulfide bond formation of ETB in transfected COS-7 cells exposed to H2O2; type: cell-based; details: H2O2 200 μmol/L for 20 min
T2 construct: host or cells: COS-7
T2 sequence (P24530 27-442): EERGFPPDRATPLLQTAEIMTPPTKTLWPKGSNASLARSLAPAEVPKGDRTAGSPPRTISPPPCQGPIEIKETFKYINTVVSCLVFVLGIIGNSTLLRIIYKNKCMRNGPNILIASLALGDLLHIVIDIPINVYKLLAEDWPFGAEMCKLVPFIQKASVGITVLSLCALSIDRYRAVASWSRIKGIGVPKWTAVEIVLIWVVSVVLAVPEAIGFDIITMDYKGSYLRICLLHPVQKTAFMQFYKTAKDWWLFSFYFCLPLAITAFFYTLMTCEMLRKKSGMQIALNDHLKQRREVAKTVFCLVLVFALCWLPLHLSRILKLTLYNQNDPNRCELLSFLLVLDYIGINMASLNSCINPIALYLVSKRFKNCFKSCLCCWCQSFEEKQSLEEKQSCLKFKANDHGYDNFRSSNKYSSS
Description: as §3

[10] = system: ETB-dependent NO. synthesis in COS-7 cells; assay: ETB-dependent NO2− formation in transfected COS-7 cells after H2O2; type: cell-based, monkey (African green monkey); details: COS-7 cells co-expressing WT-eNOS; H2O2 200 μmol/L 60 min, then ET-1 10 nM 10 min; n=4
Description: NO. metabolites. Nitrite (NO2^−) and nitrate (NO3^−) were measured in cell culture medium containing 2% fetal bovine serum and L-arginine (1 mmol/l) (Sigma-Aldrich) by 1(H)-naphthotriazole fluorescence (Cayman) as previously reported.^1 To measure NO2^− levels in whole lung tissue, lung specimens were harvested from rats and snap frozen in liquid nitrogen. Samples were thawed, homogenized in PBS (pH 7.4), and centrifuged at 14,000×g at 4° C. for 20 min. The supernatant was ultrafiltered using a 30 kDa molecular weight filter (Millpore), and the eluant was used to measure NO2^− levels according to manufacturer's instructions (Cayman).
Site-directed mutagenesis and transfection. cDNAs encoding wild type (WT) eNOS and WT-ETB from human were cloned into the mammalian expression vector pCMV6 (Origene). The C405A-ETB mutant was purchased from Genewiz (South Plainfield, N.J.). […] After this time, the medium was replaced with Dulbecco's Modified Eagle Medium (Gibco) supplemented with 10% FBS, and experiments were performed after 24 h.

Molecule: endothelin-1 [ET-1]
- association between PGC-1α and SF (co-immunoprecipitation) [1]: 1260±104 arb. units
- CYP11B2 protein expression levels ([2]; ET-1 1 nM): 157.3±27.5 % control
- CYP11B2 protein expression levels ([2]; ET-1 10 nM): 180.4±13.4 % control
- CYP11B2 protein expression levels ([2]; ET-1 100 nM): 234.8±4.3 % control
- NO2^− generation ([3]; ET-1 10 nM, maximum effect at 10 min, HPAECs, vs V 29.4±3.6, n=3): 139.4±31.8 μM/μg protein
- total NO. metabolite (NOx: NO2^−+NO3^−) formation ([3]; ET-1 (10 nM) stimulated HPAECs, without or with aldosterone, n=3): 157.9±12.7 μM/μg protein
- NO2^−/NO3^− ratio compared to V ([3]; ET-1 alone, HPAECs): did not affect
- eNOS activity (eNOS): 18.5±3.5 [^14C] L-citrulline c.p.m./μg protein
- aldosterone levels in the cell culture medium (HPAECs [4]; ET-1 1 nM): 241.1±44.8 % control
- aldosterone levels in the cell culture medium (HPAECs [4]; ET-1 10 nM): 283.5±94.7 % control
- aldosterone levels in the cell culture medium (HPAECs [4]; ET-1 100 nM): 396.0±116.5 % control
- H2O2 levels compared to V-treated cells (HPAECs [5]): no effect
- levels of 3-nitrotyrosine (HPAECs [6]): 31.2±3.2 arb. units
- SF binding to the CYP11B2 promoter (CYP11B2 promoter): 61.6±9.3 arb. units
- PGC-1α protein expression levels ([7]; ET-1 1 nM): 176.5±52.8 % control
- PGC-1α protein expression levels ([7]; ET-1 10 nM): 224.7±68.1 % control
- PGC-1α protein expression levels ([7]; ET-1 100 nM): 296.7±145.8 % control
- SF protein levels ([7]; ET-1, 24 h): no effect

Molecule: OO [H2O2, hydrogen peroxide]
- ETB disulfide bond formation (bands at 70 kDa and 90 kDa) [8]: de novo formation of one or two disulfide bonds

Molecule: Cc1cc(C)c(/C=C2\C(=O)Nc3ccccc32)[nH]1 [SU-5416]
- increase in plasma aldosterone levels [9]: 418%

B1: WT-ETB: wild type human ETB expressed in COS-7 cells (protein)
chain: EERGFPPDRATPLLQTAEIMTPPTKTLWPKGSNASLARSLAPAEVPKGDRTAGSPPRTISPPPCQGPIEIKETFKYINTVVSCLVFVLGIIGNSTLLRIIYKNKCMRNGPNILIASLALGDLLHIVIDIPINVYKLLAEDWPFGAEMCKLVPFIQKASVGITVLSLCALSIDRYRAVASWSRIKGIGVPKWTAVEIVLIWVVSVVLAVPEAIGFDIITMDYKGSYLRICLLHPVQKTAFMQFYKTAKDWWLFSFYFCLPLAITAFFYTLMTCEMLRKKSGMQIALNDHLKQRREVAKTVFCLVLVFALCWLPLHLSRILKLTLYNQNDPNRCELLSFLLVLDYIGINMASLNSCINPIALYLVSKRFKNCFKSCLCCWCQSFEEKQSLEEKQSCLKFKANDHGYDNFRSSNKYSSS
- disulfide bond formation of ETB (ETB): formation of one or two disulfide bonds; also recorded: formation of 1 or 2 disulfide bonds
- decrease of ET-1-stimulated NO2^− formation by H2O2 compared to V-treated cells [10]: 78.0%

B2: C405A-ETB (protein)
chain: EERGFPPDRATPLLQTAEIMTPPTKTLWPKGSNASLARSLAPAEVPKGDRTAGSPPRTISPPPCQGPIEIKETFKYINTVVSCLVFVLGIIGNSTLLRIIYKNKCMRNGPNILIASLALGDLLHIVIDIPINVYKLLAEDWPFGAEMCKLVPFIQKASVGITVLSLCALSIDRYRAVASWSRIKGIGVPKWTAVEIVLIWVVSVVLAVPEAIGFDIITMDYKGSYLRICLLHPVQKTAFMQFYKTAKDWWLFSFYFCLPLAITAFFYTLMTCEMLRKKSGMQIALNDHLKQRREVAKTVFCLVLVFALCWLPLHLSRILKLTLYNQNDPNRCELLSFLLVLDYIGINMASLNSCINPIALYLVSKRFKNCFKSCLCCWAQSFEEKQSLEEKQSCLKFKANDHGYDNFRSSNKYSSS
- disulfide bond formation of ETB (ETB): resistant to the formation of disulfide bonds; also recorded: resistant to disulfide bond formation
- decrease of ET-1-stimulated NO2^− formation by H2O2 compared to V-treated cells [10]: 45.0%
